Results published in ChEMBL document CHEMBL5724914, “Linking interpersonal differences in gut microbiota composition and drug biotransformation activity” (2024).

Experiments:
[1] = The drug is tested on Z-021 corresponding to metagenome with ENA study accession number: PRJEB37062 and ENA sample accession number: ERS12561820 for biotransformation under anaerobic condition. The drug concentrations were measured over 9 timepoints collected between 0 and 24 hours of incubation by liquid-chromatography-coupled mass spectrometry (LC–MS); details: 2 µM
[2] = The drug is tested on Z-004 corresponding to metagenome with ENA study accession number: PRJEB37062 and ENA sample accession number: ERS12561804 for biotransformation under anaerobic condition. The drug concentrations were measured over 9 timepoints collected between 0 and 24 hours of incubation by liquid-chromatography-coupled mass spectrometry (LC–MS); details: 2 µM
[3] = human gut metagenome, 24 h, 2 µM
[4] = The drug is tested on WLS-027 corresponding to human gut metagenome with ENA study accession number: PRJEB37062 and ENA sample accession number: ERS12561744 for biotransformation under anaerobic condition. The drug concentrations were measured over 9 timepoints collected between 0 and 24 hours of incubation by liquid-chromatography-coupled mass spectrometry (LC–MS); details: 2 µM
[5] = human gut metagenome, 24 h, 2 µM; remark: listed apart in the source
[6] = The drug is tested on Z-005 corresponding to metagenome with ENA study accession number: PRJEB37062 and ENA sample accession number: ERS12561805 for biotransformation under anaerobic condition. The drug concentrations were measured over 9 timepoints collected between 0 and 24 hours of incubation by liquid-chromatography-coupled mass spectrometry (LC–MS); details: 2 µM
[7] = human gut metagenome, 24 h, 2 µM; remark: listed apart in the source
[8] = human gut metagenome, 24 h, 2 µM; remark: listed apart in the source
[9] = human gut metagenome, 24 h, 2 µM; remark: listed apart in the source
[10] = The drug is tested on WLS-350 corresponding to human gut metagenome with ENA study accession number: PRJEB37062 and ENA sample accession number: ERS12561789 for biotransformation under anaerobic condition. The drug concentrations were measured over 9 timepoints collected between 0 and 24 hours of incubation by liquid-chromatography-coupled mass spectrometry (LC–MS); details: 2 µM
[11] = The drug is tested on Z-016 corresponding to mouse gut metagenome with ENA study accession number: PRJEB37062 and ENA sample accession number: ERS12561815 for biotransformation under anaerobic condition. The drug concentrations were measured over 9 timepoints collected between 0 and 24 hours of incubation by liquid-chromatography-coupled mass spectrometry (LC–MS); details: 2 µM
[12] = human gut metagenome, 24 h, 2 µM; remark: listed apart in the source
[13] = The drug is tested on Z-027 corresponding to metagenome with ENA study accession number: PRJEB37062 and ENA sample accession number: ERS12561826 for biotransformation under anaerobic condition. The drug concentrations were measured over 9 timepoints collected between 0 and 24 hours of incubation by liquid-chromatography-coupled mass spectrometry (LC–MS); details: 2 µM
[14] = human gut metagenome, 24 h, 2 µM; remark: listed apart in the source
[15] = The drug is tested on WLS-082 corresponding to human gut metagenome with ENA study accession number: PRJEB37062 and ENA sample accession number: ERS12561751 for biotransformation under anaerobic condition. The drug concentrations were measured over 9 timepoints collected between 0 and 24 hours of incubation by liquid-chromatography-coupled mass spectrometry (LC–MS); details: 2 µM
[16] = human gut metagenome, 24 h, 2 µM; remark: listed apart in the source
[17] = human gut metagenome, 24 h, 2 µM; remark: listed apart in the source
[18] = human gut metagenome, 24 h, 2 µM; remark: listed apart in the source
[19] = human gut metagenome, 24 h, 2 µM; remark: listed apart in the source
[20] = The drug is tested on WLS-007 corresponding to human gut metagenome with ENA study accession number: PRJEB37062 and ENA sample accession number: ERS12561742 for biotransformation under anaerobic condition. The drug concentrations were measured over 9 timepoints collected between 0 and 24 hours of incubation by liquid-chromatography-coupled mass spectrometry (LC–MS); details: 2 µM
Further: call rule not given here.

For `CCN(CC)C(=O)C1(c2ccccc2)CC1CN` (configuration not stated), the “Bacterial Biotransformation” value [1] was “Compound NOT metabolized”, the “Bacterial Biotransformation” value [2] was “Compound NOT metabolized” and the “Bacterial Biotransformation” value [3] was “Compound NOT metabolized”. The “Bacterial Biotransformation” value [4] was “Compound NOT metabolized”, the “Bacterial Biotransformation” value [5] was “Compound NOT metabolized” and the “Bacterial Biotransformation” value [6] was “Compound NOT metabolized”. For the same molecule, the “Bacterial Biotransformation” value [7] was “Compound NOT metabolized”, the “Bacterial Biotransformation” value [8] was “Compound NOT metabolized” and the “Bacterial Biotransformation” value [9] was “Compound NOT metabolized”. The “Bacterial Biotransformation” value [10] was “Compound NOT metabolized”, the “Bacterial Biotransformation” value [11] was “Compound NOT metabolized” and the “Bacterial Biotransformation” value [12] was “Compound NOT metabolized”. For the same molecule, the “Bacterial Biotransformation” value [13] was “Compound NOT metabolized”, the “Bacterial Biotransformation” value [14] was “Compound NOT metabolized” and the “Bacterial Biotransformation” value [15] was “Compound NOT metabolized”. For the same molecule, the “Bacterial Biotransformation” value [16] was “Compound NOT metabolized”, the “Bacterial Biotransformation” value [17] was “Compound NOT metabolized” and the “Bacterial Biotransformation” value [18] was “Compound NOT metabolized”. The “Bacterial Biotransformation” value [19] was “Compound NOT metabolized” and the “Bacterial Biotransformation” value [20] was “Compound NOT metabolized”.
With `Nc1nc(NC2CC2)c2ncn([C@H]3C=C[C@@H](CO)C3)c2n1.Nc1nc(NC2CC2)c2ncn([C@H]3C=C[C@@H](CO)C3)c2n1.O=S(=O)(O)O` [ABACAVIR SULFATE] the “Bacterial Biotransformation” value [1] was “Compound NOT metabolized”, the “Bacterial Biotransformation” value [2] was “Compound metabolized” and the “Bacterial Biotransformation” value [3] was “Compound metabolized”. For the same molecule, the “Bacterial Biotransformation” value [4] was “Compound NOT metabolized”, the “Bacterial Biotransformation” value [5] was “Compound NOT metabolized” and the “Bacterial Biotransformation” value [6] was “Compound NOT metabolized”. The “Bacterial Biotransformation” value [7] was “Compound metabolized”, the “Bacterial Biotransformation” value [8] was “Compound metabolized” and the “Bacterial Biotransformation” value [9] was “Compound metabolized”. For the same molecule, the “Bacterial Biotransformation” value [10] was “Compound metabolized”, the “Bacterial Biotransformation” value [11] was “Compound NOT metabolized” and the “Bacterial Biotransformation” value [12] was “Compound metabolized”. For the same molecule, the “Bacterial Biotransformation” value [13] was “Compound NOT metabolized”, the “Bacterial Biotransformation” value [14] was “Compound metabolized” and the “Bacterial Biotransformation” value [15] was “Compound NOT metabolized”. For the same molecule, the “Bacterial Biotransformation” value [16] was “Compound metabolized”, the “Bacterial Biotransformation” value [17] was “Compound NOT metabolized” and the “Bacterial Biotransformation” value [18] was “Compound metabolized”. For the same molecule, the “Bacterial Biotransformation” value [19] was “Compound metabolized” and the “Bacterial Biotransformation” value [20] was “Compound NOT metabolized”.
For `CCN(CC)CCNC(=O)c1ccc(NC(C)=O)cc1` [ACECAINIDE], the “Bacterial Biotransformation” value [1] was “Compound NOT metabolized”, the “Bacterial Biotransformation” value [2] was “Compound NOT metabolized” and the “Bacterial Biotransformation” value [3] was “Compound metabolized”. The “Bacterial Biotransformation” value [4] was “Compound NOT metabolized”, the “Bacterial Biotransformation” value [5] was “Compound NOT metabolized” and the “Bacterial Biotransformation” value [6] was “Compound NOT metabolized”. The “Bacterial Biotransformation” value [7] was “Compound metabolized”, the “Bacterial Biotransformation” value [8] was “Compound NOT metabolized” and the “Bacterial Biotransformation” value [9] was “Compound metabolized”. The “Bacterial Biotransformation” value [10] was “Compound NOT metabolized”, the “Bacterial Biotransformation” value [11] was “Compound NOT metabolized” and the “Bacterial Biotransformation” value [12] was “Compound NOT metabolized”. The “Bacterial Biotransformation” value [13] was “Compound NOT metabolized”, the “Bacterial Biotransformation” value [14] was “Compound NOT metabolized” and the “Bacterial Biotransformation” value [15] was “Compound NOT metabolized”. The “Bacterial Biotransformation” value [16] was “Compound NOT metabolized”, the “Bacterial Biotransformation” value [17] was “Compound NOT metabolized” and the “Bacterial Biotransformation” value [18] was “Compound NOT metabolized”. For the same molecule, the “Bacterial Biotransformation” value [19] was “Compound NOT metabolized” and the “Bacterial Biotransformation” value [20] was “Compound NOT metabolized”.
In the case of `O=C1CN2Cc3c(ccc(Cl)c3Cl)N=C2N1` [ANAGRELIDE], the “Bacterial Biotransformation” value [1] is reported as “Compound NOT metabolized”, the “Bacterial Biotransformation” value [2] is reported as “Compound NOT metabolized” and the “Bacterial Biotransformation” value [3] is reported as “Compound metabolized”. The “Bacterial Biotransformation” value [4] was “Compound NOT metabolized”, the “Bacterial Biotransformation” value [5] was “Compound NOT metabolized” and the “Bacterial Biotransformation” value [6] was “Compound NOT metabolized”. The “Bacterial Biotransformation” value [7] was “Compound metabolized”, the “Bacterial Biotransformation” value [8] was “Compound NOT metabolized” and the “Bacterial Biotransformation” value [9] was “Compound metabolized”. For the same molecule, the “Bacterial Biotransformation” value [10] was “Compound NOT metabolized”, the “Bacterial Biotransformation” value [11] was “Compound NOT metabolized” and the “Bacterial Biotransformation” value [12] was “Compound NOT metabolized”. For the same molecule, the “Bacterial Biotransformation” value [13] was “Compound NOT metabolized”, the “Bacterial Biotransformation” value [14] was “Compound NOT metabolized” and the “Bacterial Biotransformation” value [15] was “Compound metabolized”. The “Bacterial Biotransformation” value [16] was “Compound metabolized”, the “Bacterial Biotransformation” value [17] was “Compound NOT metabolized” and the “Bacterial Biotransformation” value [18] was “Compound NOT metabolized”. The “Bacterial Biotransformation” value [19] was “Compound NOT metabolized” and the “Bacterial Biotransformation” value [20] was “Compound metabolized”.
In the case of `CN1CCC[C@@H]1CCO[C@](C)(c1ccccc1)c1ccc(Cl)cc1.O=C(O)/C=C/C(=O)O` [CLEMASTINE FUMARATE], the “Bacterial Biotransformation” value [1] is reported as “Compound NOT metabolized”, the “Bacterial Biotransformation” value [2] is reported as “Compound NOT metabolized” and the “Bacterial Biotransformation” value [3] is reported as “Compound metabolized”. The “Bacterial Biotransformation” value [4] was “Compound metabolized”, the “Bacterial Biotransformation” value [5] was “Compound metabolized” and the “Bacterial Biotransformation” value [6] was “Compound NOT metabolized”. For the same molecule, the “Bacterial Biotransformation” value [7] was “Compound metabolized”, the “Bacterial Biotransformation” value [8] was “Compound metabolized” and the “Bacterial Biotransformation” value [10] was “Compound metabolized”. For the same molecule, the “Bacterial Biotransformation” value [11] was “Compound NOT metabolized”, the “Bacterial Biotransformation” value [12] was “Compound metabolized” and the “Bacterial Biotransformation” value [13] was “Compound NOT metabolized”. For the same molecule, the “Bacterial Biotransformation” value [14] was “Compound NOT metabolized”, the “Bacterial Biotransformation” value [15] was “Compound NOT metabolized” and the “Bacterial Biotransformation” value [16] was “Compound metabolized”. For the same molecule, the “Bacterial Biotransformation” value [17] was “Compound metabolized”, the “Bacterial Biotransformation” value [18] was “Compound NOT metabolized” and the “Bacterial Biotransformation” value [19] was “Compound NOT metabolized”. The “Bacterial Biotransformation” value [20] was “Compound NOT metabolized”.
In the case of `CCCCCNC(=N)N/N=C/c1c[nH]c2ccc(OC)cc12.O=C(O)/C=C\C(=O)O` [TEGASEROD MALEATE], the “Bacterial Biotransformation” value [1] is reported as “Compound NOT metabolized”, the “Bacterial Biotransformation” value [2] is reported as “Compound NOT metabolized” and the “Bacterial Biotransformation” value [3] is reported as “Compound NOT metabolized”. For the same molecule, the “Bacterial Biotransformation” value [4] was “Compound NOT metabolized”, the “Bacterial Biotransformation” value [5] was “Compound NOT metabolized” and the “Bacterial Biotransformation” value [6] was “Compound NOT metabolized”. For the same molecule, the “Bacterial Biotransformation” value [8] was “Compound NOT metabolized”, the “Bacterial Biotransformation” value [9] was “Compound NOT metabolized” and the “Bacterial Biotransformation” value [10] was “Compound NOT metabolized”. The “Bacterial Biotransformation” value [11] was “Compound NOT metabolized”, the “Bacterial Biotransformation” value [12] was “Compound NOT metabolized” and the “Bacterial Biotransformation” value [13] was “Compound NOT metabolized”. For the same molecule, the “Bacterial Biotransformation” value [14] was “Compound NOT metabolized”, the “Bacterial Biotransformation” value [15] was “Compound metabolized” and the “Bacterial Biotransformation” value [16] was “Compound NOT metabolized”. For the same molecule, the “Bacterial Biotransformation” value [17] was “Compound NOT metabolized”, the “Bacterial Biotransformation” value [18] was “Compound NOT metabolized” and the “Bacterial Biotransformation” value [20] was “Compound NOT metabolized”.
